# Reference: US10130710B2 (priority 2014, dated 2018)
# Counter-ions that a name gives are not always drawn.
# Format: physicochemical
# Conditions: Log10(concentration in octanol phase/concentration in aqueous phase)
# From the text: Incidentally, the octanol-water partition coefficient herein is obtained by adding a target component to be measured into a flask charged with n-octanol and an aqueous buffer of pH 7 or water, shaking the resultant, and performing calculation, in accordance with the following equation, based on active ingredient concentrations in respective phases. Octanol-water partition coefficient=Log10(concentration in octanol phase/concentration in aqueous phase)
row,SMILES,water-octanol partition coefficient
1,CC(C)CCCCCCCOC(=O)C(C)(C)C [isodecyl neopentanoate],5.9
2,CC(C)CCCCCCOC(=O)CCCCCC(C)C [isononyl isononanoate],6.5
3,CCCCCCCCCCCCCC(=O)OC(C)C [isopropyl myristate],7.2
4,CC(C)CCCCCCCCCCOC(=O)CCCCCC(C)C [isotridecyl isononanoate],9.2
5,"CC12CC3CC(C)(C1)CC(N)(C3)C2 [memantine hydrochloride, reference compound]",0.3
6,CC(C)CCCCCC(=O)OCC(C)(C)COC(=O)CCCCCC(C)C [neopentyl glycol diisononanoate],7.2
7,CCCCCCCCCCCCCC(=O)OCC(CCCCCCCC)CCCCCCCCCC (centres unmarked) [octyldodecyl myristate],16.0
8,"O.O.O.O.O.O=P([O-])(O)C(O)(Cc1cccnc1)P(=O)(O)O.O=P([O-])(O)C(O)(Cc1cccnc1)P(=O)(O)O.[Na+].[Na+] [risedronate monosodium hemipentahydrate, reference compound]",−5.0
9,CC(C)CCCC(C)CCCC(C)CCCCC(C)CCCC(C)CCCC(C)C (centres unmarked) [squalane],14.7
10,CCCCC(CC)C(=O)OCC(COC(=O)C(CC)CCCC)OC(=O)C(CC)CCCC (centres unmarked) [triethylhexanoin],8.9
11,"CCCc1nc(C)c2c(=O)[nH]c(-c3cc(S(=O)(=O)N4CCN(CC)CC4)ccc3OCC)nn12 [verdenafil hydrochloride hydrate, reference compound]",0.0
